Measured values reported in patent publication US9212151B2, “Heterocyclic compounds useful for kinase inhibition” (Amitech Therapeutic Solutions, Inc., priority 2010, dated 2015).

Assay: MTT cell viability assay, compounds at 5, 1 and 0.2 μM, 48 hours
Format: cell-based
Details: human, A549 tumor cells
Summary of the method: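 A549 cells were seeded at 2500/well in DMEM + 10% FBS, grown overnight, then exposed to compound for 48 h. Viability was read by MTT (5 mg/ml, 4 h), with formazan dissolved in DMSO and absorbance measured at 560/570 nm to give survival rate.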

Row | Compound | viability at 48 h, 0.2 µM (0.2 μM) | viability at 48 h, 1 µM (1 μM) | viability at 48 h, 5 µM (5 μM) | viability at 48 h, 0.2 µM (0.2 μM compound) | viability at 48 h, 1 µM (1 μM compound) | viability at 48 h, 5 µM (5 μM compound)
1 | CSc1nc(N)cc(Oc2ccc(-c3nnc(Nc4cccc(C(F)(F)F)c4)[nH]3)cc2Cl)n1 [Compound 104] | > 70% | > 70% | < 50% |  |  | 
2 | FC(F)(F)c1cccc(Nc2nnc(-c3cccc(Oc4ccncc4)c3)o2)c1 [Compound 37] | > 70% | > 70% | > 70% |  |  | 
3 | Cc1cc(Oc2cccc(-c3nnc(Nc4cccc(C(F)(F)F)c4)[nH]3)c2)c2ccccc2n1 [Compound 168] | > 70% | > 70% | 50 to 70% |  |  | 
4 | FC(F)(F)c1cccc(-c2nnc(Nc3ccc(Oc4cccnc4)cc3)[nH]2)c1 [Compound 174] | > 70% | > 70% | > 70% |  |  | 
5 | CCc1cc(Oc2cccc(-c3nnc(Nc4cccc(C(F)(F)F)c4)[nH]3)c2)nc(N)n1 [Compound 94] | > 70% | > 70% | 50 to 70% |  |  | 
6 | Cc1nc(N)cc(Oc2ccc(-c3nnc(Nc4cccc(C(F)(F)F)c4)[nH]3)cc2)n1 [Compound 82] | > 70% | > 70% | 50 to 70% |  |  | 
7 | COc1ccc2c(Oc3ccc(-c4cnc(Nc5cccc(C(F)(F)F)c5)[nH]4)cc3)ccnc2c1 [Compound 200] |  |  |  | > 70% | > 70% | > 70%
8 | CC(C)(C)Sc1nc(N)cc(Oc2cccc(-c3nnc(Nc4cccc(C(F)(F)F)c4)[nH]3)c2)n1 [Compound 98] | > 70% | > 70% | > 70% |  |  | 
9 | Nc1cc(Oc2cccc(-c3nnc(Nc4cccc(C(F)(F)F)c4)[nH]3)c2)nc(N)n1 [Compound 13] | > 70% | > 70% | 50 to 70% |  |  | 
10 | Nc1cc(Oc2cccc(-c3nnc(Nc4cccc(C(F)(F)F)c4)[nH]3)c2)ccn1 [Compound 18] | 50 to 70% | < 50% | < 50% |  |  | 
11 | FC(F)(F)c1cccc(Nc2nnc(-c3cccc(Oc4cncc5ccccc45)c3)[nH]2)c1 [Compound 164] | > 70% | > 70% | 50 to 70% |  |  | 
12 | FC(F)(F)Oc1ccc2c(Oc3ccc(-c4nnc(Nc5cccc(C(F)(F)F)c5)[nH]4)cc3)ccnc2c1 [Compound 163] | > 70% | > 70% | > 70% |  |  | 
13 | COc1ccc2c(Oc3ccc(-c4nnc(Nc5cccc(C(F)(F)F)c5)o4)cc3)ccnc2c1 [Compound 33] | > 70% | > 70% | > 70% |  |  | 
14 | Nc1cc(Oc2ccc(-c3nnc(Nc4cccc(C(F)(F)F)c4)o3)cc2)ncn1 [Compound 28] | > 70% | > 70% | > 70% |  |  | 
15 | Nc1cc(Oc2cccc(-c3nnc(Nc4cccc(C(F)(F)F)c4)o3)c2)ccn1 [Compound 38] | > 70% | > 70% | > 70% |  |  | 
16 | Cc1cc(Oc2cccc(-c3nnc(Nc4cccc(C(F)(F)F)c4)[nH]3)c2)ccn1 [Compound 91] | > 70% | > 70% | 50 to 70% |  |  | 
17 | CSc1nc(N)cc(Oc2ccc(-c3nnc(Nc4cccc5c4CCCC5)[nH]3)cc2)n1 [Compound 135] | < 50% | < 50% | < 50% |  |  | 
18 | Cc1ccc2nccc(Oc3ccc(-c4nnc(Nc5cccc(C(F)(F)F)c5)[nH]4)cc3)c2c1 [Compound 162] | > 70% | > 70% | > 70% |  |  | 
19 | FC(F)(F)c1cccc(Nc2nnc(-c3ccc(Oc4ccncc4)c(Cl)c3)[nH]2)c1 [Compound 103] | > 70% | > 70% | 50 to 70% |  |  | 
20 | Nc1cc(Oc2ccc(-c3nnc(Nc4cccc(C(F)(F)F)c4)o3)cc2)ccn1 [Compound 59] | > 70% | > 70% | > 70% |  |  | 
21 | Nc1nccc(Oc2ccc(-c3nnc(Nc4cccc(C(F)(F)F)c4)o3)cc2)n1 [Compound 27] | > 70% | > 70% | 50 to 70% |  |  | 
22 | COc1cc(-c2nnc(Nc3cccc(C(F)(F)F)c3)[nH]2)ccc1Oc1cc(N)nc(SC)n1 [Compound 109] | > 70% | > 70% | < 50% |  |  | 
23 | CCOc1nc(N)cc(Oc2cccc(-c3nnc(Nc4cccc(C(F)(F)F)c4)[nH]3)c2)n1 [Compound 97] | > 70% | > 70% | > 70% |  |  | 
24 | CSc1nc(N)cc(Oc2ccc(-c3nnc(Nc4cc(C(C)(C)C)nn4-c4cccc(C)c4)[nH]3)cc2)n1 [Compound 139] | > 70% | > 70% | > 70% |  |  | 

Row | Compound | viability at 48 h, 0.2 µM (0.2 μM) | viability at 48 h, 1 µM (1 μM) | viability at 48 h, 5 µM (5 μM) | viability at 48 h, 0.2 µM (0.2 μM compound) | viability at 48 h, 1 µM (1 μM compound) | viability at 48 h, 5 µM (5 μM compound)
25 | FC(F)(F)c1cccc(Nc2nnc(-c3cccc(Oc4ccnc5cc(OCc6ccccc6)ccc45)c3)[nH]2)c1 [Compound 193] | > 70% | > 70% | > 70% |  |  | 
26 | CSc1nc(N)cc(Oc2ccc(-c3nnc(Nc4cccc(C(C)(C)C#N)c4)[nH]3)cc2)n1 [Compound 131] | > 70% | > 70% | < 50% |  |  | 
27 | CSc1nc(N)cc(Oc2ccc(-c3nnc(Nc4cccc(CC#N)c4)[nH]3)cc2)n1 [Compound 130] | > 70% | > 70% | < 50% |  |  | 
28 | Nc1cc(F)cc(Oc2ccc(-c3nnc(Nc4cccc(C(F)(F)F)c4)[nH]3)cc2)c1 [Compound 156] | > 70% | > 70% | 50 to 70% |  |  | 
29 | Cc1cc(Oc2cccc(-c3nnc(Nc4cccc(C(F)(F)F)c4)[nH]3)c2)nc(N)n1 [Compound 54] | > 70% | < 50% | < 50% |  |  | 
30 | FC(F)(F)c1cccc(Nc2nnc(-c3cccc(Oc4ccnc5ccccc45)c3)o2)c1 [Compound 42] | > 70% | > 70% | > 70% |  |  | 
31 | CSc1nc(N)cc(Oc2ccc(-c3nnc(Nc4cc(C(C)(C)C)n[nH]4)[nH]3)cc2)n1 [Compound 132] | > 70% | > 70% | < 50% |  |  | 
32 | FC(F)(F)c1cccc(Nc2nnc(-c3ccc(Oc4ccnc5ccccc45)cc3)s2)c1 [Compound 47] | > 70% | > 70% | > 70% |  |  | 
33 | CSc1nc(N)cc(Oc2ccc(-c3nnc(Nc4cccc(C(F)(F)F)c4)[nH]3)c(Cl)c2)n1 [Compound 112] | > 70% | > 70% | > 70% |  |  | 
34 | Cc1cc(Oc2ccc(-c3nnc(Nc4cccc(C(F)(F)F)c4)[nH]3)cc2)c2ccccc2n1 [Compound 158] | > 70% | > 70% | 50 to 70% |  |  | 
35 | CSc1nc(Oc2ccc(-c3nnc(Nc4cccc(C(F)(F)F)c4)[nH]3)cc2)c2cc[nH]c2n1 [Compound 9] | > 70% | > 70% | > 70% |  |  | 
36 | CSc1nc(N)cc(Sc2ccc(-c3nnc(Nc4cccc(C(F)(F)F)c4)[nH]3)cc2)n1 [Compound 119] | > 70% | < 50% | < 50% |  |  | 
37 | CCOc1cc(Oc2cccc(-c3nnc(Nc4cccc(C(F)(F)F)c4)[nH]3)c2)nc(N)n1 [Compound 57] | > 70% | > 70% | > 70% |  |  | 
38 | CC(=O)NCCSc1nc(N)cc(Oc2ccc(-c3nnc(Nc4cccc(C(F)(F)F)c4)[nH]3)cc2)n1 [Compound 114] | > 70% | > 70% | > 70% |  |  | 
39 | CCOc1cc(Oc2ccc(-c3nnc(Nc4cccc(C(F)(F)F)c4)[nH]3)cc2)nc(N)n1 [Compound 52] | > 70% | > 70% | > 70% |  |  | 
40 | FC(F)(F)c1cccc(Nc2nnc(-c3ccc(Oc4ccnc5cc(Cl)ccc45)cc3)[nH]2)c1 [Compound 150] | > 70% | > 70% | > 70% |  |  | 
41 | COc1ccc2c(Oc3cccc(-c4nnc(Nc5cccc(C(F)(F)F)c5)[nH]4)c3)cc(C)nc2c1 [Compound 194] | > 70% | > 70% | > 70% |  |  | 
42 | FC(F)(F)c1cccc(Nc2nnc(-c3ccc(Oc4ccnc5[nH]ccc45)cc3)[nH]2)c1 [Compound 68] | > 70% | 50 to 70% | < 50% |  |  | 
43 | FC(F)(F)c1cccc(Nc2nnc(-c3cccc(Oc4ccncc4C(F)(F)F)c3)o2)c1 [Compound 40] | > 70% | > 70% | > 70% |  |  | 
44 | Nc1cc(Oc2cccc(-c3nnc(Nc4cccc(C(F)(F)F)c4)o3)c2)nc(N)n1 [Compound 35] | > 70% | > 70% | > 70% |  |  | 
45 | COc1cc2ncnc(Oc3ccc(-c4nnc(Nc5cccc(C(F)(F)F)c5)[nH]4)cc3)c2cc1OC [Compound 160] | > 70% | > 70% | 50 to 70% |  |  | 
46 | COc1ccc2c(Oc3cccc(-c4nnc(Nc5cccc(C(F)(F)F)c5)[nH]4)c3)ccnc2c1 [Compound 22] | > 70% | > 70% | > 70% |  |  | 
47 | CSc1nc(N)cc(Oc2ccc(-c3nnc(Nc4cccc(C(F)(F)F)c4)[nH]3)cc2C)n1 [Compound 102] | > 70% | > 70% | > 70% |  |  | 
48 | FC(F)(F)c1cccc(Nc2nnc(-c3ccc(Oc4ccnc(Cl)c4)cc3)[nH]2)c1 [Compound 6] | > 70% | 50 to 70% | < 50% |  |  | 
